Measured values taken from BindingDB's records for patent US20240308985 (Psy Therapeutics, 2024).

Molecular target: T1, Fatty-acid amide hydrolase 1 (Homo sapiens, UniProt O00519)
T1 sequence (O00519 whole entry): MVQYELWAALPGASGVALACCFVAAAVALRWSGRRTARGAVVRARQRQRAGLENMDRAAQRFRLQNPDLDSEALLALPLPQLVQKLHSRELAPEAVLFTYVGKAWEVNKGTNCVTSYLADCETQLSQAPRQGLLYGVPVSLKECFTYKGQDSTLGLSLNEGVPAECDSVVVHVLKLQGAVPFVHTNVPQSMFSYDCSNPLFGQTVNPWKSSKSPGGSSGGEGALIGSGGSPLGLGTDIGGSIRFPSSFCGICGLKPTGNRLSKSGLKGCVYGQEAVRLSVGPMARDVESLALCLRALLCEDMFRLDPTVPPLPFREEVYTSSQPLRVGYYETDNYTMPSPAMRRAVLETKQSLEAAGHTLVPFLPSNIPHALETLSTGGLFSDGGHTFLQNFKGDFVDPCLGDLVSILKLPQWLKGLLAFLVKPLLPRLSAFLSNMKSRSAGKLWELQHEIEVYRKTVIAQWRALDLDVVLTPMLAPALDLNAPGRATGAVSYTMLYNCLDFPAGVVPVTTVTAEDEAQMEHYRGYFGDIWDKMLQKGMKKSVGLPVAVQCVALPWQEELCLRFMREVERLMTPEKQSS
Assay: Measuring FAAH Inhibition Potency
Experimental: MAGL inhibitor compounds were also counter-screened for FAAH inhibition potency using the following assay. Assessment of FAAH inhibition was performed using Fatty Acid Amide Hydrolase Inhibitor Screening Assay Kit (Cayman Item No. 10005196) following manufacture's instruction with some modifications. The kit utilizes human recombinant FAAH and the fluorescent substrate, AMC Arachidonoyl amide (AAMCA). 5 μL of assay buffer (125 mM Tris, pH 9.0, 1 mM EDTA, i.e. ethylenediaminetetraacetic acid) was added to a 384-well black plate (Corning, 3573). Test compounds and control inhibitor JZL-195 (Cayman Chemical, 13668) were tested in 10-concentration IC50 mode with 3-fold serial dilution at a starting concentration of 100 μM and 10 μM, respectively. 300 nL or 30 nL of test compounds were delivered into a 384-well black plate (Corning, 3573) using a Labcyte Echo, followed by addition of 15 μL of FAAH enzyme (Cayman, 700302) in assay buffer. After a 5-minute pre-incubation at room temperature, 10 μL of AAMCA was added in assay buffer to start the reaction. Final concentration of FAAH enzyme is not specified and AAMCA substrate was used at the 20 uM. […] The reaction was allowed to progress for 60 minutes, while the plate was read on an Envision plate reader at an Ex/Em of 350/460 nm with readings every minute. The data was analyzed in Microsoft Excel, using the slope between 30 and 59 minutes. […]

IC50: > 10 µM
SMILES: Cc1cc(C2=CC3(C2)CN(C(=O)c2cc(O)ccc2F)C3)n(-c2ccccc2C)n1 [US20240308985, Compound 120]
